# From patent US4370331A, “L-Glaucine containing composition for cough relief” (Karl O. Helm Aktiengesellschaft, priority 1977, dated 1983)
# Several values for one entry are separate records, joined by “and”; a condition that tells them apart may be missing. Identical values can stand only once. Counter-ions that a name gives are not always drawn. Like-named read-outs stand apart in the source and are kept apart here.
# Tests used:
# cough pulses [1] = experiment: Oral citric acid aerosol cough test in guinea pigs, time course 1-24 h, Comparative test 6; type: in vivo; conditions: for Cough pulses during 8 minutes, percent of control value, after 1 h / Cough pulses during 8 minutes, percent of control value, after 3 h / Cough pulses during 8 minutes, percent of control value, after 5 h / Cough pulses during 8 minutes, percent of control value, after 24 h: codeine phosphate 75, d,l-glaucine hydrobromide 150, hydrochloride 135, embonate 378 mg/kg
# Protocol: In a further comparative test, 40 female guinea pigs with body weights between 230 and 500 g were divided into 4 groups and each animal was again subjected to the action of a 20% citric acid aerosol for 8 minutes. From the control values thus obtained the average control value for each group was calculated. Each animal of each group was then given, by means of a throat probe, either 75 mg/kg of codeine phosphate, or 135 mg/kg of d,l-glaucine hydrochloride, or 150 mg/kg of d,1-glaucine hydrobromide, or 378 mg/kg of d,l-glaucine embonate. These doses are the equimolar quantities, based on glaucine. After a period of 1, or 3, or 5, or 24 hours each animal was again subjected for 8 minutes to the action of the citric acid aerosol, and the number of cough pulses during this period was recorded. The values thus obtained were compared with the control values and the percent deviation of the average measured value for each group, from the average control value, was calculated.
# coughing centre = experiment: Coughing reflex by electrical stimulation of upper laryngeal nerves of anaesthetized cats (method of Domenjoz), Comparative test 5; type: in vivo; conditions: intravenous; for minimal effective dose: Felis catus, read-out: MED (minimal effective dose completely suppressing the coughing reflex); for minimal effective dose / Duration of cough suppression: anaesthetized cats; for Duration of cough suppression: at MED
# Protocol: In a series of tests conducted by the method of Domenjoz, the effects of the different active substances on the coughing centre was examined by electrical stimulation of the upper laryngeal nerves of anaesthetized cats. Electrical stimulation of the nerve produces a coughing reflex and the intention is to reduce this by intravenous injection of the active substance. The minimal effective dose MED is determined by increasing the dose from 0.1 mg/kg of body weight up to 0.3 mg/kg, 1.0 mg/kg, 3.0 mg/kg and 6.0 mg/kg, until the dose is sufficient for completely suppressing the coughing reflex.
# In these tests each animal was given, on the one hand, codeine and, on the other hand, at sufficient time intervals also glaucine, so that the ratio of the minimal effective doses of glaucine and codeine can be deduced.
# cough pulses [2] = experiment: Oral citric acid aerosol cough test in guinea pigs, 1 h (equivalent effective doses), Comparative test 6; type: in vivo; conditions: for Cough pulses percent of control value: 20% citric acid aerosol 8 min
# [3] = system: isolated guinea pig intestines (contractions induced by electric voltages); experiment: Suppression of electrically induced contractions in isolated guinea pig intestines, Comparative test 4; set-up: electrically induced contractions (Table III): unit not given here
# Protocol: In a further series of tests the effects of different doses of codeine phosphate in suppressing contractions induced in isolated guinea pig intestines by electric voltages were tested. For this purpose one electrode was immersed in the solution surrounding the intestinal preparation. The second electrode was connected to the preparation at the attachment point.
# [4] = system: isolated guinea pig intestines (contractions induced by electric voltages); experiment: as above; conditions: isolated guinea pig intestine; codeine: increased doses; d-glaucine: higher concentrations than 4×10^-5; d,l-glaucine: 4×10^-5 to 6×10^-5
# cough pulses [5] = experiment: Citric acid aerosol cough test in guinea pigs, subcutaneous, 30 min (method of Friebel and Reichle), Comparative test 1; type: in vivo; conditions: s.c.; for ED50: Cavia porcellus, sc, 0.5 h, 30 min after administering, 20% citric acid aerosol, 8 min
# Protocol: In order to compare the anti-cough effectiveness of codeine phosphate with the effectiveness of the different isomers of glaucine hydrobromide, the testing method of Friebel and Reichle was used. 60 guinea pigs with weights between 200 and 300 g were divided up into ten groups of different sizes. Before administering the active substance, each animal was subjected, on the same day as the day of test with the active substance, for a period of 8 minutes to an aerosol of 20% citric acid, the animal being confined in a chamber at constant air pressure. During this control test the number of cough pulses was counted with the help of a pressure transmitter. From these measurements an average control value for each group was calculated. After this preliminary control test, there was given subcutaneously to each animal of each group a suspension of the active substance in 1% sodium carboxymethyl cellulose. After 30 minutes each animal was again exposed in the test chamber for 8 minutes to the aerosol of 20% citric acid and the number of cough pressure pulses recorded. The different active substances were administered in increasing doses ranging from 3 mg/kg to 100 mg/kg of body weight. Altogether eight different doses were given. The results were expressed as percent deviation from the average control value for the group on the same day, the deviation being entered in a diagram against the logarithm of the dose administered. From the resulting effectiveness curve, based on the logarithm of the dose, the coefficient of correlation and the ED50 were calculated for each active substance, by the regression analysis method of Downie and Heath (1965). The values obtained for codeine phosphate, for d-glaucine hydrobromide, for d,l-glaucine hydrobromide and for l-glaucine hydrobromide thirty minutes after administering the active substance are summarized in Table I.
# mice = experiment: Toxicity (LD50) in mice by the Wilcox method, Comparative test 7; type: in vivo; conditions: hydrobromide
# Protocol: (§1) The toxicity thresholds of codeine phosphate, of d-glaucine hydrobromide and of d,l-glaucine hydrobromide were determined in mice by the Wilcox method. […] The toxicities of codeine phosphate and d,l-glaucine hydrobromide are about equal.
# [6] = as above; type: in vivo; conditions: mouse, in vivo
# Protocol: as §1
# [7] = system: smooth muscles of isolated guinea pigs intestine; experiment: Effect on smooth muscles of isolated guinea pig intestine in a bath, Comparative test 3; conditions: for spontaneous activity and tone, in words: molar concentrations between 1×10^-5 and 8×10^-5
# Protocol: Experiments were conducted in vitro to determine the effects of different active substances on the smooth muscles of isolated guinea pigs intestine samples suspended in a bath. After adding to the bath different doses of the active substances, the contractive force of the muscle material was recorded.
# intestinal motility = experiment: Intestinal motility / evacuation action of stomach-intestinal tract of mice (carbon suspension), Comparative test 2; type: in vivo; conditions: s.c., 2 h, control 74.3%, * = significantly different from control (p < 0.05)
# Source text: One of the most unpleasant side effects of anti-cough medicine containing codeine is constipation and the occurrence of intestinal spasms. A model test for determining the effects of anti-cough active substances on intestinal motility and on the evacuation action of the stomach-intestinaltract of mice was therefore made. After subcutaneous injection of the active substance, each animal was given, through a throat probe, a 10% suspension of carbon in a 5% aqueous slurry of gum arabic. Two hours later the intestine was sectioned and the distance of stomach coecum measured, and also the distance travelled by the carbon, which was expressed as percent of intestine length.
# The effects of codeine phosphate, of d-glaucine hydrobromide and of l-glaucine hydrobromide on intestinal motility were determined at different doses. For each dose the average value was calculated for a sufficient number of animals.
# [8] = po, peroral, read-out: LD50 peroral
# [9] = sc, subcutaneous, read-out: LD50 subcutaneous
structure (smiles),measurement,setting,value
"COc1cc2c(cc1OC)-c1c(OC)c(OC)cc3c1C(C2)N(C)CC3 (racemic) [d,l-glaucine embonate]","Cough pulses during 8 minutes, percent of control value, after 1 h",cough pulses [1],80%
same,"Cough pulses during 8 minutes, percent of control value, after 3 h",cough pulses [1],51%
same,"Cough pulses during 8 minutes, percent of control value, after 5 h",cough pulses [1],57%
same,"Cough pulses during 8 minutes, percent of control value, after 24 h",cough pulses [1],81%
same,"duration of effect, in words","cough pulses [1]; guinea pigs, 378 mg/kg",considerably longer-lasting effect without any delay in the beginning of the effect
"COc1cc2c(cc1OC)-c1c(OC)c(OC)cc3c1C(C2)N(C)CC3 (racemic) [d,l-glaucine hydrobromide]","Cough pulses during 8 minutes, percent of control value, after 1 h",cough pulses [1]; hydrobromide,90%
same,"Cough pulses during 8 minutes, percent of control value, after 3 h",cough pulses [1]; hydrobromide,47%
same,"Cough pulses during 8 minutes, percent of control value, after 5 h",cough pulses [1]; hydrobromide,59%
same,"Cough pulses during 8 minutes, percent of control value, after 24 h",cough pulses [1]; hydrobromide,113%
same,minimal effective dose,coughing centre,1 mg/kg
same,Duration of cough suppression,coughing centre,44 to 62 min
same,"duration of the effect, in words",coughing centre; at minimal dose,"considerably greater for the d,l-glaucine hydrobromide than for the d-glaucine hydrobromide"
same,Cough pulses percent of control value,cough pulses [2]; 100 mg/kg,30%
same,Cough pulses percent of control value,cough pulses [2]; 200 mg/kg,44%
same,"dose having about the same effect (codeine phosphate vs d,l-glaucine hydrobromide)",cough pulses [2]; guinea pigs,~150 mg per kg of body weight
same,"suppression of electrically induced spasms, in words",[3]; 4×10^-5 to 6×10^-5,suppress the electrically induced spasms practically completely
same,electrically induced contractions (Table III),[3]; molar concentration 1 × 10^-5,63
same,electrically induced contractions (Table III),[3]; molar concentration 2 × 10^-5,48
same,electrically induced contractions (Table III),[3]; molar concentration 4 × 10^-5,8
same,electrically induced contractions (Table III),[3]; molar concentration 4 × 10^-6,81
same,electrically induced contractions (Table III),[3]; molar concentration 8 × 10^-6,63
same,"induced spontaneous activity, in words",[4],without at the same time inducing any spontaneous activity
same,ED50,cough pulses [5],27.2 mg/kg
same,"ED50 value, comparison in words",cough pulses [5]; 30 min,even lower ED50 value than l-glaucine hydrobromide
same,"toxicity, comparison in words",mice,about equal
same,LD50,[6]; [8],686 mg/kg
same,LD50,[6]; [9],320 mg/kg
"COc1cc2c(cc1OC)-c1c(OC)c(OC)cc3c1C(C2)N(C)CC3 (racemic) [d,l-glaucine hydrochloride]","Cough pulses during 8 minutes, percent of control value, after 1 h",cough pulses [1]; hydrochloride,80%
same,"Cough pulses during 8 minutes, percent of control value, after 3 h",cough pulses [1]; hydrochloride,72%
same,"Cough pulses during 8 minutes, percent of control value, after 5 h",cough pulses [1]; hydrochloride,69%
same,"Cough pulses during 8 minutes, percent of control value, after 24 h",cough pulses [1]; hydrochloride,102%
"COc1ccc2c3c1O[C@H]1[C@@H](O)C=C[C@H]4[C@@H](C2)N(C)CC[C@@]341 [codeine, reference compound]","contractive force of the muscle material, in words",[7]; molar concentrations between 1×10^-5 and 32×10^-5,produces contractions which depend on the dose
"COc1cc2c(cc1OC)-c1c(OC)c(OC)cc3c1[C@H](C2)N(C)CC3 [d-glaucine hydrobromide, reference compound]",Distance travelled average % (of intestine length),intestinal motility; 10 mg/kg,74.6%
same,Distance travelled average % (of intestine length),intestinal motility; 30 mg/kg,80.1%
same,Distance travelled average % (of intestine length),intestinal motility; 100 mg/kg,36.4%
same,minimal effective dose,coughing centre,1 mg/kg
same,Duration of cough suppression,coughing centre,5 to 39 min
same,"suppression of electrically induced contraction reflexes, in words",[3]; 4×10^-5,suppresses electrically induced contraction reflexes
same,electrically induced contractions (Table III),"[3]; molar concentration 1 × 10^-5, hydrobromide",77 and 95
same,electrically induced contractions (Table III),"[3]; molar concentration 2 × 10^-5, hydrobromide",74 and 79
same,electrically induced contractions (Table III),"[3]; molar concentration 4 × 10^-5, hydrobromide",44 and 36
same,"induced spontaneous activity, in words",[4],the increasing spontaneous activity prevents any distinguishing between direct production and electric production of the activity
same,ED50,cough pulses [5],54 mg/kg
same,LD50,[6]; [8],345 mg/kg
same,LD50,[6]; [9],125 mg/kg
"COc1cc2c(cc1OC)-c1c(OC)c(OC)cc3c1[C@H](C2)N(C)CC3 [d-glaucine, reference compound]","spontaneous activity and tone, in words",[7],dose-dependent increase of spontaneous activity and tone
COc1cc2c(cc1OC)-c1c(OC)c(OC)cc3c1[C@@H](C2)N(C)CC3 [l-glaucine],spasmogenic activity,"[7]; in vitro, isolated guinea pig intestine",no spasmogenic activity
same,"spontaneous activity and tone, in words",[7],a reduction in spontaneous activity and no increase in tone
